Values of other authors as cited in patent publication US20090054305A1, “Mixtures of Amylin and Insulin” (Novo Nordisk A/S, priority 2006, published 2009).
Ends that are not written are not given here.

settings: treated test animals, e.g. provoking marked hyperlactemia followed by hyperglycemia

| Substance | amylin activity in vivo |
| --- | --- |
| ^18Arg^25, 28Pro-h-amylin | amylin activity in vivo |
| ^28Pro-h-amylin | amylin activity in vivo |
| des-^1Lys-h-amylin (CNTATCATQRLANFLVHSSNNFGAILSSTNVGSNTY; not fully specified (C-terminus, bridges); ends and bridges not checked; UniProt P10997 34-70, looked up, variant K1*) [human amylin analog where the lysine in position 1 is lacking] | amylin activity in vivo |
| des-^1Lys^18Arg^25, 28Pro-h-amylin | amylin activity in vivo |

settings: compared to human amylin

| Substance | solubility and stability characteristics |
| --- | --- |
| ^18Arg^25, 28Pro-h-amylin | more desirable solubility and stability characteristics |
| ^25Pro^26Val^28, 29Pro-h-amylin | more desirable solubility and stability characteristics |
